Laboratory results reported in patent publication US20110294799A1, “Organic Compounds” (NOVARTIS AG, priority 2007, published 2011).

Legend:
[1] = target: T1, GABA-A alpha1 receptor (alpha 1 subunit together with a beta and a gamma subunit) (Homo sapiens, UniProt P14867+P18507); experiment: GABA-A receptor modulation, voltage-sensitive dye fluorescence in transfected eukaryotic cell line (alpha1); format: cell-based; conditions: compounds at 3 μM, sub-maximal concentration of GABA (EC20); for activation at 3 µM: read-out: alpha1 % mod (percentage of increase of the fluorescent signal compared to signal without the agent)
T1 construct: expressed in transfected cells
T1 sequence (P14867 28-456): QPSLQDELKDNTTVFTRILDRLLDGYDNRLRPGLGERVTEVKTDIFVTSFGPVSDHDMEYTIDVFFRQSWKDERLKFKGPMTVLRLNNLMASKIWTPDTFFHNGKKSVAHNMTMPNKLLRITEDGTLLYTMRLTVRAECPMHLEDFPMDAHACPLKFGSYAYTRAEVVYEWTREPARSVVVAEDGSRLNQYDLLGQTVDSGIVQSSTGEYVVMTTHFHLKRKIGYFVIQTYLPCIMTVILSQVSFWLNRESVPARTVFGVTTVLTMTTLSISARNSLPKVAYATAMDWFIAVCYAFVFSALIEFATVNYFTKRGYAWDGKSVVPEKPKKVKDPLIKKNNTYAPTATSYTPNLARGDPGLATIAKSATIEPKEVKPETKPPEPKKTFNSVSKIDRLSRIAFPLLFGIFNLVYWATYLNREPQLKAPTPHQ
T1 sequence (P47870 25-512 partner limits assumed): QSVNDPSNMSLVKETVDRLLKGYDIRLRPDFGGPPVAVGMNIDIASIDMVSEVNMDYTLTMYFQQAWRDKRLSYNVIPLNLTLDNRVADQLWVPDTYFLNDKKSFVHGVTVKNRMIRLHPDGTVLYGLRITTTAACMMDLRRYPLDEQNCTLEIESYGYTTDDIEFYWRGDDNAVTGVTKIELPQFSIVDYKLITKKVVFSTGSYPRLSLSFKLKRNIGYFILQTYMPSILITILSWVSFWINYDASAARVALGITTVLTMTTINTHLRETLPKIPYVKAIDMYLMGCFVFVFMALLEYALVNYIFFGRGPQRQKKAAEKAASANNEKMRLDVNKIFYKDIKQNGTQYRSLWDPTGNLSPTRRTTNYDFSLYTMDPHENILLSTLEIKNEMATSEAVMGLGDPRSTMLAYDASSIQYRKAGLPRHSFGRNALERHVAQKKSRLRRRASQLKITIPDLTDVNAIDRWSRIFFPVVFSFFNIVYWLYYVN
T1 sequence (P18507 40-467 limits assumed): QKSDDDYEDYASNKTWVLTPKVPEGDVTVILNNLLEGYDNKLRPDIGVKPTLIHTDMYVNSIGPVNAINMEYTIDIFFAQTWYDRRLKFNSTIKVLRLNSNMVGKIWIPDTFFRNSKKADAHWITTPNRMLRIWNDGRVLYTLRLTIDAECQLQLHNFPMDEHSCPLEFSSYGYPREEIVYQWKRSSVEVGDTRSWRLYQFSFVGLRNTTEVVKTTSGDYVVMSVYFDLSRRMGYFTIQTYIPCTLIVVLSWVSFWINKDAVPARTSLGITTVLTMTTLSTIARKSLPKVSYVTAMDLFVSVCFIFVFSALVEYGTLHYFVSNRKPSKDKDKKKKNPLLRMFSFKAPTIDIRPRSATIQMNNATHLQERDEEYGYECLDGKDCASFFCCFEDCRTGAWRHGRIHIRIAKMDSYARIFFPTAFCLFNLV
Excerpt: (§1) GABA-A receptor modulators show in functional assays a positive modulation of GABA-induced signals. This modulation can be determined in vitro, e.g., at recombinant GABA-A receptors expressed in a mammalian cell line, e.g. by measurement of GABA-A receptor induced changes of the trans-membrane voltage, when using a voltage-sensitive dye and a fluorescence detection system (Adkins, C. E., Pillai, G. V., Kerby, J., Bonnert, T. P., Haldon, C., Mckernan, R. M., Gonzalez, J. E., Oades, K., Whiting, P. J. & Simpson, P. B. [2001]. alpha4beta3delta GABA-A receptors characterized by fluorescence resonance energy transfer-derived measurements of membrane potential. J. Biol. Chem., 276, 38934-38939). In this assay, a modulator compound is pre-applied at different concentrations ranging from 0.1 nM to 10 μM to cells expressing GABA-A receptors and loaded with the voltage-sensitive dye, before, or at the same time as, a sub-maximal concentration of GABA (in the range of from 0.1 to 10 μM) is applied to the cells. The fluorescent signal is correlated with the degree of GABA-A receptor channel opening. This allows the quantification of effects induced by the modulator in a functional manner. By expression of different GABA-A receptor subunit combinations, the differential efficacy of a modulator at different GABA-A receptor variants can be tested. Other functional assays include the electrophysiological recording of Xenopus oocytes or mammalian cells expressing respective receptor variants. In addition, ion flux detectors can be used to functionally study GABA-A receptors in heterologous expression systems. The affinity of a compound to the GABA-A receptor can be measured in radioligand binding experiments using reference ligands containing a radioactive element, e.g., tritiated flumazenil, and intact cells or membrane preparations of cells expressing GABA-A receptors.
(§2) Activity and selectivity of a GABA-A receptor modulator according to the invention can, e.g., be determined in vitro as follows: A transfected eukaryotic cell line expressing the alpha1, alpha2 or alpha3 subunit of the GABA-A receptor together with a beta and a gamma subunit of the GABA-A receptor is incubated with a voltage-sensitive dye, and the effects of an agonist (typically GABA) or modulator addition are recorded in a fluorimetric plate reader. The opening of the GABA-A receptor channel and the subsequent flux of anions through it changes the trans-membrane voltage of the transfected cells, leading to a change in the fluorescent signal of the voltage-sensitive dye. In the presence of the agent of the invention, a sub-maximal concentration of GABA (e.g. an EC20 or an EC50) added to transfected cells expressing the alpha1, alpha2 or alpha3 subunit of the GABA-A receptor will elicit an at least 50%, preferably an at least 80%, ideally an at least 100%, increase, of the fluorescent signal, compared to the fluorescent signal obtained without the agent of the invention. In this assay, agents of the invention modulate the GABA-induced response at concentration from about 0.1 to about 10′000 nM.

[2] = target: T2, GABA-A alpha2 receptor (alpha 2 subunit together with a beta and a gamma subunit) (Homo sapiens, UniProt P18507+P47869); experiment: GABA-A receptor modulation, voltage-sensitive dye fluorescence in transfected eukaryotic cell line (alpha2); format: cell-based; conditions: compounds at 3 μM, sub-maximal concentration of GABA (EC20); for activation at 3 µM: read-out: alpha2 % mod (percentage of increase of the fluorescent signal compared to signal without the agent)
T2 construct: expressed in transfected cells
T2 sequence (P47869 29-451): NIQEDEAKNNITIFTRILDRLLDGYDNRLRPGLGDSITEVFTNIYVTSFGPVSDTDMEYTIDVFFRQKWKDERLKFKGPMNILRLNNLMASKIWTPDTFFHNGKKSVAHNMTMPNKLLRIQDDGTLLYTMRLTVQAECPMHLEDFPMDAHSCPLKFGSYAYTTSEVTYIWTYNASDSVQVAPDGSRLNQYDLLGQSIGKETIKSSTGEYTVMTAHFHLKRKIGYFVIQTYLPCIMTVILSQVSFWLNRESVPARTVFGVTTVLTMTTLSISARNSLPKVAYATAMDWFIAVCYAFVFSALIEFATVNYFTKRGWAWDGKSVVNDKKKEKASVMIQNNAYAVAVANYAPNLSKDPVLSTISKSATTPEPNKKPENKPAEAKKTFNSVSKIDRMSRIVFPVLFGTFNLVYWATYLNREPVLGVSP
T2 sequence (P47870 25-512 partner limits assumed): T1 sequence (P47870 25-512 partner limits assumed)
T2 sequence (P18507 40-467 limits assumed): T1 sequence (P18507 40-467 limits assumed)
Excerpt: as §1, §2

| SMILES | activation at 3 µM [1] | activation at 3 µM [2] | alpha1 % mod (percentage of increase of the fluorescent signal compared to signal without the agent) [1] | alpha2 % mod (percentage of increase of the fluorescent signal compared to signal without the agent) [2] |
| --- | --- | --- | --- | --- |
| COc1ccc(-n2nc3c(cnc4ccccc43)c2OCc2ccncc2)cc1 [Example 60, 2-(4-methoxyphenyl)-3-(pyridin-4-ylmethoxy)-2H-pyrazolo[4,3-c]quinoline] | 64% | 177% |  |  |
| COc1ccc(-n2nc3c(cnc4ccccc43)c2OCc2ccccc2Cl)cc1 [Example 61, 3-[(2-chlorobenzyl)oxy]-2-(4-methoxyphenyl)-2H-pyrazolo[4,3-c]quinoline] | 52% | 145% |  |  |
| COc1ccc(-n2nc3c(cnc4ccccc43)c2OCc2ccc(Cl)nc2)cc1 [Example 62, 3-[(6-chloropyridin-3-yl)methoxy]-2-(4-methoxypheny1)-2H-pyrazolo[4,3-c]quinoline] |  |  | 55 % mod | 141 % mod |
| Fc1ccc(-n2nc3c(cnc4ccccc43)c2OCc2ccccc2Cl)cc1 [Example 63, 3-[(2-chlorobenzyl)oxy]-2-(4-fluorophenyl)-2H-pyrazolo[4,3-c]quinoline] | 9% | 60% |  |  |
| COc1ccc(-n2nc3c(cnc4c(F)c(F)c(F)cc43)c2SCc2ccccc2)cc1 [Example 70, 3-(benzylsulfanyl)-6,7,8-trifluoro-2-(4-methoxyphenyl)-2H-pyrazolo[4,3-c]quinoline] | 188% | 349% |  |  |
| CC(C)(C)n1nc2c(cnc3ccccc32)c1OCc1ccccc1Br [Example 81, 3-[(2-bromobenzyl)oxy]-2-tert-butyl-2H-pyrazolo[4,3-c]quinoline] | 109% | 205% |  |  |
| COc1ccc(-n2nc3c(cnc4ccccc43)c2OCc2ccc(Cl)cc2)cc1 [Example 89, 3-(4-Chloro-benzyloxy)-2-(4-methoxy-phenyl)-2H-pyrazolo[4,3-c]quinoline] | 23% | 69% |  |  |
| Clc1ccc(-n2nc3c(cnc4ccccc43)c2OCC2CC2)cc1 [Example 90, 2-(4-Chloro-phenyl)-3-cyclopropylmethoxy-2H-pyrazolo[4,3-c]quinoline] | 60% | 164% |  |  |
| Clc1ccc(-n2nc3c(cnc4ccccc43)c2OCC2CCCC2)cc1 [Example 91, 2-(4-Chloro-phenyl)-3-cyclopentylmethoxy-2H-pyrazolo[4,3-c]quinoline] | 55% | 84% |  |  |
| Clc1ccc(-n2nc3c(cnc4ccccc43)c2OC2CCCC2)cc1 [Example 92, 2-(4-Chloro-phenyl)-3-cyclopentyloxy-2H-pyrazolo[4,3-c]quinoline] | 27% | 57% |  |  |
| Clc1ccc(-n2nc3c(cnc4ccccc43)c2OCCN2CCOCC2)cc1 [Example 93, 2-(4-Chloro-phenyl)-3-(2-morpholin-4-yl-ethoxy)-2H-pyrazolo[4,3-c]quinoline] | 17% | 81% |  |  |
| Clc1ccc(-n2nc3c(cnc4ccc(-n5ccnc5)cc43)c2OCC2CC2)cc1 [Example 96, 2-(4-Chloro-phenyl)-3-cyclopropylmethoxy-8-imidazol-1-yl-2H-pyrazolo[4,3-c]quinoline] | 119% | 162% |  |  |
| Clc1ccc(-n2nc3c(cnc4ccccc43)c2OCC2CCO2)cc1 (stereo not shown) [Example 98, 2-(4-Chloro-phenyl)-3-(oxetan-2-ylmethoxy)-2H-pyrazolo[4,3-c]quinoline] | 53% | 97% |  |  |
| CN1CCN(CCOc2c3cnc4ccccc4c3nn2-c2ccc(Cl)cc2)CC1 [Example 99] |  |  | 58 % mod | 121 % mod |
| Clc1ccc(-n2nc3c(cnc4ccc(-n5ccnc5)cc43)c2OCC2CCCC2)cc1 [Example 113, 2-(4-Chloro-phenyl)-3-cyclopentylmethoxy-8-imidazol-1-yl-2H-pyrazolo[4,3-c]quinoline] | 63% | 88% |  |  |
| Clc1ccc(-n2nc3c(cnc4ccc(-n5ccnc5)cc43)c2OCCc2ccccc2Cl)cc1 [Example 114, 2-(4-Chloro-phenyl)-3-[2-(2-chloro-phenyl)-ethoxy]-8-imidazol-1-yl-2H-pyrazolo[4,3-c]quinoline] | 108% | 129% |  |  |
| Clc1ccc(-n2nc3c(cnc4ccc(Br)cc43)c2OCc2ccccc2Cl)cc1 [Example 115, 8-Bromo-3-(2-chloro-benzyloxy)-2-(4-chloro-phenyl)-2H-pyrazolo[4,3-c]quinoline] | 26% | 66% |  |  |
